Assay [1] is described as follows: Inhibition of Class I/IIb HDAC in human THP-1 cells preincubated for 18 hrs followed by substrate addition and measured after 3 hrs by fluorescence based microplate reader assay. The assay is classed as cell-based.
The next assay addresses Histone deacetylase 2 (Homo sapiens, UniProt Q92769). The assay is described as follows: Inhibition of human recombinant HDAC2 using Boc-Lys(Ac)-AMC as substrate preincubated for 5 mins followed by substrate addition and measured after 90 mins by fluorescence based microplate reader analysis.
In the next assay the target is Histone deacetylase 1 (Homo sapiens, UniProt Q13547). The assay is described as follows: Inhibition of HDAC1 (unknown origin).
Histone deacetylase 1, sequence (Q13547 whole entry): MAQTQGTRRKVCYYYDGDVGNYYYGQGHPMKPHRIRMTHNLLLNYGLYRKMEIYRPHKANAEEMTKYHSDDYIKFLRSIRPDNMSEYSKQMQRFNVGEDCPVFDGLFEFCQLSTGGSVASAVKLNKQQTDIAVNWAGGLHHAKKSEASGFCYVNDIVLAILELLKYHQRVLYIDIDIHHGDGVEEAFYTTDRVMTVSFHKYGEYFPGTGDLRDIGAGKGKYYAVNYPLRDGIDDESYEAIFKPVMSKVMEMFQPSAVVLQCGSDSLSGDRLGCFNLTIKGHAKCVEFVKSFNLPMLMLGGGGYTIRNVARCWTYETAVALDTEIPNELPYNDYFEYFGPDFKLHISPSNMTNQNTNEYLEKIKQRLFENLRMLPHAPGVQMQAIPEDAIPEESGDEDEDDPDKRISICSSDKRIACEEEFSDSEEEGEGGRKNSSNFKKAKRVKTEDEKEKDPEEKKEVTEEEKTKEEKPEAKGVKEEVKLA
A further assay deals with T1, Histone deacetylase 7 (Homo sapiens, UniProt Q8WUI4).
T1 sequence (Q8WUI4 whole entry): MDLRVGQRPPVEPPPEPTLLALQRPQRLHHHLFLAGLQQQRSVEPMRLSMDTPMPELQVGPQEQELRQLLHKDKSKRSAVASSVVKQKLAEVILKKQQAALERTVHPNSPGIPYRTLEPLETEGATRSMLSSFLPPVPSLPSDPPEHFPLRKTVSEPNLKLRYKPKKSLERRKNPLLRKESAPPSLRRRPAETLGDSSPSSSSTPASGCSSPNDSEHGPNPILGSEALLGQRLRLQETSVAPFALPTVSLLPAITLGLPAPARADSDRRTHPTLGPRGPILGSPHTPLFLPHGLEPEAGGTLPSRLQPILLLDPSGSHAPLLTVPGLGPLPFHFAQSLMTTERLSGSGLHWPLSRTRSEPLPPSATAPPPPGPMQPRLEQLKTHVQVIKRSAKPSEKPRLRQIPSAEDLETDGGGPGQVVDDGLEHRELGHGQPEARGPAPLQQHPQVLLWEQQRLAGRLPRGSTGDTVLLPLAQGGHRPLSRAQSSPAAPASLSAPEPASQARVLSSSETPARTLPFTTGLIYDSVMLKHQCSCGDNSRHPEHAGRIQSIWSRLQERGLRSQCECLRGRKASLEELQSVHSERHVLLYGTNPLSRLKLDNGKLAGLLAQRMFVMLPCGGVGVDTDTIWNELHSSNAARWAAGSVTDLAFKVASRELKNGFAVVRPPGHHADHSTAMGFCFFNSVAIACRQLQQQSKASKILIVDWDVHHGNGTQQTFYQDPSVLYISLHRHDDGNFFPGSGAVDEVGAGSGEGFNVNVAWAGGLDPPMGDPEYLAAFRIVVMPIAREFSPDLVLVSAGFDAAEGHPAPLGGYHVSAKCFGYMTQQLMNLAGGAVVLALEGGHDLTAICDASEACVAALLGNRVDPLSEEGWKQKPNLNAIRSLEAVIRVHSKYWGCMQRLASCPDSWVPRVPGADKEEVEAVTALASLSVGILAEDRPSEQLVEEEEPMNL
The assay is described as follows: Inhibition of HDAC7 (unknown origin).

Another assay addresses Histone deacetylase 5 (Homo sapiens, UniProt Q9UQL6). Kind of assay: Inhibition of HDAC5 (unknown origin).
Assay [2] can be described thus: Inhibition of Class IIa/8 HDAC in human THP-1 cells preincubated for 18 hrs followed by substrate addition and measured after 3 hrs by fluorescence based microplate reader assay. Format: cell-based.
Another assay deals with Histone deacetylase 4 (Homo sapiens, UniProt P56524). The assay is described as follows: Inhibition of human recombinant TEV-8His-tagged HDAC4 (648 to 1057 residues) expressed in Escherichia coli (DE3) Rosetta cells using Boc-Lys-(Tfa)-AMC as substrate preincubated for 5 mins followed by substrate addition and measured after 90 mins by fluorescence based microplate reader analysis.
Histone deacetylase 4, sequence (P56524 whole entry, the tested form may be a part): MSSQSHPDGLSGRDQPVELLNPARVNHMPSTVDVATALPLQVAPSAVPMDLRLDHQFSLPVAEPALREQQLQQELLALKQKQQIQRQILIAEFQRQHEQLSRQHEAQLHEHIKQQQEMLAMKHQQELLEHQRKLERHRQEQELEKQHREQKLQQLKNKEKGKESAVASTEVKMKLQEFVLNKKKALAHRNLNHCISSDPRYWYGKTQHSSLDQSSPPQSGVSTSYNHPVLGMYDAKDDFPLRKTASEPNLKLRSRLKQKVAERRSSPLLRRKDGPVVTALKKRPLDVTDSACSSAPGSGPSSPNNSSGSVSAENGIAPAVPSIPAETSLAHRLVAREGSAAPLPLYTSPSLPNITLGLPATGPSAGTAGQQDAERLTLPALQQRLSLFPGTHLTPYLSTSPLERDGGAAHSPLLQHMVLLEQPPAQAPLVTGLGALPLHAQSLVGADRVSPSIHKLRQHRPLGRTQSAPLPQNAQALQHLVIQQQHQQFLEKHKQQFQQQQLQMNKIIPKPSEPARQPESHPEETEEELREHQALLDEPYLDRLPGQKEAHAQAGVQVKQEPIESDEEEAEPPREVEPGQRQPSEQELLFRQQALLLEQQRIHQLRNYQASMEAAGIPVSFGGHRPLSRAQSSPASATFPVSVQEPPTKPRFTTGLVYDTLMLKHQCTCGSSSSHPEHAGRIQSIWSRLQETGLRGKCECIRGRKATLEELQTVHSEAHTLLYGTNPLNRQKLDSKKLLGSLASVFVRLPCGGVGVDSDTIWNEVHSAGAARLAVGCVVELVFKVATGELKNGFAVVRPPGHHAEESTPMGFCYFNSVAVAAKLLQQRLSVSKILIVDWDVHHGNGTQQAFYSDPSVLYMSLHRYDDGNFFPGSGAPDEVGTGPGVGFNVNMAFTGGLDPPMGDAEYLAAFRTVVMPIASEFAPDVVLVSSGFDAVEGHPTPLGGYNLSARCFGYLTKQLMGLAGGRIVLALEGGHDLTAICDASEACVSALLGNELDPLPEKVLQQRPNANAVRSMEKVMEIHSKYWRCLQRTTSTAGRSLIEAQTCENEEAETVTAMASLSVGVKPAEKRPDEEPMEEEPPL

Another assay addresses T2, Histone deacetylase 11 (Homo sapiens, UniProt Q96DB2).
T2 sequence (Q96DB2 whole entry): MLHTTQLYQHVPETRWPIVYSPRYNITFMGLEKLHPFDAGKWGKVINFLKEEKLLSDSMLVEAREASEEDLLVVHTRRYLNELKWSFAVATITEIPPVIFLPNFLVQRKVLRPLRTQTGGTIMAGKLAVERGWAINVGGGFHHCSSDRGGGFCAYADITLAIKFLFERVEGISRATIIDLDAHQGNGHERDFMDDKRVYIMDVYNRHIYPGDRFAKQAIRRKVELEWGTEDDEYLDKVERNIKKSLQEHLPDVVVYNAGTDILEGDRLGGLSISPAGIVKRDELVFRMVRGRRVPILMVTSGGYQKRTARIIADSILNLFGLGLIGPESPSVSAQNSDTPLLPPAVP
Kind of assay: Inhibition of HDAC11 (unknown origin).

Assay [3] has as its target T3, Protein deacetylase HDAC6 (Homo sapiens, UniProt Q9UBN7).
T3 sequence (Q9UBN7 whole entry): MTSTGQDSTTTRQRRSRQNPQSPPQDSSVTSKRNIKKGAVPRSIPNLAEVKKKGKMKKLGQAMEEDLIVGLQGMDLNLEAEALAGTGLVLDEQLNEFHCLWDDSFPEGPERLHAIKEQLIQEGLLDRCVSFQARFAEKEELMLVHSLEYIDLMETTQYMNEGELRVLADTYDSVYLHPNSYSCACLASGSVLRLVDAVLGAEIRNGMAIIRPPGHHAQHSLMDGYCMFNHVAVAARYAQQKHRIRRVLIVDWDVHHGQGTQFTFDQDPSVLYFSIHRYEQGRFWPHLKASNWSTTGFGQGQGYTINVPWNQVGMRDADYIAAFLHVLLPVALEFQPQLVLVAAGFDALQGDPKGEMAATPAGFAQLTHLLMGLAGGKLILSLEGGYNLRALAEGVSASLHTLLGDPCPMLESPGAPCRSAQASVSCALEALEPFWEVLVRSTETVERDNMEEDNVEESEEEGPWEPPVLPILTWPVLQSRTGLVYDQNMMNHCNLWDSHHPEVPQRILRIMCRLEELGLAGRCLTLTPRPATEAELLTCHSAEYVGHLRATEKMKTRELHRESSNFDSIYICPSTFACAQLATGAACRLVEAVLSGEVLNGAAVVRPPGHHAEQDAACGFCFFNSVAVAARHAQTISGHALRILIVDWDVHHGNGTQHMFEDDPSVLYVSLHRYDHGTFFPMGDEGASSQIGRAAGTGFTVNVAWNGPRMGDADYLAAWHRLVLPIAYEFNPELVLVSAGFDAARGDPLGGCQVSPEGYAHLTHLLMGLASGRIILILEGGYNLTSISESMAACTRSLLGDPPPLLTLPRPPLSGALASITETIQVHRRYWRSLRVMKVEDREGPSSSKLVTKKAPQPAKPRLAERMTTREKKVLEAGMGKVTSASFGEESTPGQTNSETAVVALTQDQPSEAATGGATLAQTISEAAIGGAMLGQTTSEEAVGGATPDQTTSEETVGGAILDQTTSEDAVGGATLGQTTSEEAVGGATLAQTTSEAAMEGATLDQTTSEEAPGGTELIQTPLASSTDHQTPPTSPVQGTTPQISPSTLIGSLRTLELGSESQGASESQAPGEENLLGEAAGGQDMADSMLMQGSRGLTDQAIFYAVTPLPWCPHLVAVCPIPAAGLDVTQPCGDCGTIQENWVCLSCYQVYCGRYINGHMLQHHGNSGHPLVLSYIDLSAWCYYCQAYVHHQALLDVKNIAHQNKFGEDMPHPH
The assay is described as follows: Inhibition of human recombinant HDAC6 using Boc-Lys(Ac)-AMC as substrate preincubated for 5 mins followed by substrate addition and measured after 90 mins by fluorescence based microplate reader analysis.

The values that follow come from ChEMBL document CHEMBL5537119 (Eur J Med Chem, 2024).

Structures are written as SMILES.

Histone deacetylase 5, sequence (Q9UQL6 whole entry): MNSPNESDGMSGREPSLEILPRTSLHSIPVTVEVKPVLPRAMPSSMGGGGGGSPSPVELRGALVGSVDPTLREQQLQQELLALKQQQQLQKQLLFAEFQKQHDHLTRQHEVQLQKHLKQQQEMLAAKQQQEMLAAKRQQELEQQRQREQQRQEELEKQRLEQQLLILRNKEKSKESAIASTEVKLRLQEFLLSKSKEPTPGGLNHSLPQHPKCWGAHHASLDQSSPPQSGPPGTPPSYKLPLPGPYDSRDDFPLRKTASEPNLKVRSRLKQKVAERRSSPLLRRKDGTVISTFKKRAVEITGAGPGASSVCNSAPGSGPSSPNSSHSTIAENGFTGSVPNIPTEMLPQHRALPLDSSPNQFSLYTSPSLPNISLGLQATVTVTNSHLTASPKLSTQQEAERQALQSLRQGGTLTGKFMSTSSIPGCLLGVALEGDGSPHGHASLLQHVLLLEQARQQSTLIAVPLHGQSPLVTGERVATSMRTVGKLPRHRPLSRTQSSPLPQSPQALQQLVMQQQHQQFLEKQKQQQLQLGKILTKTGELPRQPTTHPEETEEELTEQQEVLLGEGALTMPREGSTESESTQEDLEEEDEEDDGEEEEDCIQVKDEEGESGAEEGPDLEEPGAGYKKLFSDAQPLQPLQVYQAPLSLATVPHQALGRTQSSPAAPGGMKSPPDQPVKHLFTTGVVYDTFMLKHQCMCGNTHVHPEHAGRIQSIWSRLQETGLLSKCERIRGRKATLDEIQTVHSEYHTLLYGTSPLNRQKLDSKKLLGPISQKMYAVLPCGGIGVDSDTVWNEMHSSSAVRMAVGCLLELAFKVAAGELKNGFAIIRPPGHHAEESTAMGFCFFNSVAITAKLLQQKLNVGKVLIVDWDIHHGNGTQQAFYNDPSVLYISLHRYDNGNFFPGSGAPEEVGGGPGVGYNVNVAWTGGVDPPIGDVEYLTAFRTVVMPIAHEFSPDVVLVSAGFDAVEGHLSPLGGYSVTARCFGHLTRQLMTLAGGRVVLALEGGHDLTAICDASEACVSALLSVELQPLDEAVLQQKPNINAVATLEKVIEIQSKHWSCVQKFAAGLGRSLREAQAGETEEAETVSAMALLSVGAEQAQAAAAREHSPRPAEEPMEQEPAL
Histone deacetylase 2, sequence (Q92769 whole entry): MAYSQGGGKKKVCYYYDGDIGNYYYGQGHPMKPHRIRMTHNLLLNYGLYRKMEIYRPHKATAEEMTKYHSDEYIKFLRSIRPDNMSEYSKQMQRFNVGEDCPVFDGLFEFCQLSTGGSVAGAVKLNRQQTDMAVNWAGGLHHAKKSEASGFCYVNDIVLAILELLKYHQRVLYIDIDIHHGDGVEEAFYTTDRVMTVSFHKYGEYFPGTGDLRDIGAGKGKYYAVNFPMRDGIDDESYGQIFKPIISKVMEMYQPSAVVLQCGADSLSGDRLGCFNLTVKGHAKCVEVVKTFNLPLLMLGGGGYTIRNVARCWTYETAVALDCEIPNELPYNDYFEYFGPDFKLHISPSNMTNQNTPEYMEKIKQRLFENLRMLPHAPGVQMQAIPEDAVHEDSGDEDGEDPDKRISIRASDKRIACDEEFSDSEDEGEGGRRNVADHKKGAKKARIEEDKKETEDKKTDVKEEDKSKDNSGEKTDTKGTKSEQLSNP

A word on the IC50: it is the concentration at which inhibition is half-maximal. `O=C(NOCc1coc(-c2ccccc2)n1)c1ccc(-c2noc(C(F)(F)F)n2)cc1`: the IC50 in assay [1] is over 100 µM; on Histone deacetylase 2, over 100 µM; against Histone deacetylase 1, over 100 µM; against Histone deacetylase 7, 1.97 µM; at Histone deacetylase 5, 1.09 µM; in [2], 38.1 µM. Moreover, the IC50 is 0.118 µM at Histone deacetylase 4, over 100 µM against Histone deacetylase 11 and over 100 µM in [3].
